# Reference: US10947252B2, “Inhibitors of KEAP1-Nrf2 protein-protein interaction” (Janssen Pharmaceutica NV, priority 2018, dated 2021)
# Where a name gives a salt, the structure may show the parent alone.
# Assays:
# [1] = target: Kelch domain of human KEAP1 (321-624 aa) (Homo sapiens (Human), UniProt Q14145); assay: KEAP1 KELCH ThermoFluor binding assay; settings: KEAP Kelch […], 1,8-ANS, pH 7.0, average of results obtained, read-out: Tf Kd;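 also: Ligand-induced melting temperature shift of E. coli-expressed KEAP1 Kelch protein, Kd estimated from concentration-response curves of ΔTm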
# [2] = test system: Glo-Response ARE-luc2P HEK293 cell line; assay: ARE luciferase reporter cell-based assay; settings: Homo sapiens, HEK293, 24 h, average of results obtained;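 also: luciferase signal tracks Nrf2 activation of the ARE once compounds disrupt KEAP1-Nrf2 binding, read with One-Glo reagent, DMSO serving as low control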
# Chain of Kelch domain of human KEAP1 (321-624 aa) (Q14145 321-624): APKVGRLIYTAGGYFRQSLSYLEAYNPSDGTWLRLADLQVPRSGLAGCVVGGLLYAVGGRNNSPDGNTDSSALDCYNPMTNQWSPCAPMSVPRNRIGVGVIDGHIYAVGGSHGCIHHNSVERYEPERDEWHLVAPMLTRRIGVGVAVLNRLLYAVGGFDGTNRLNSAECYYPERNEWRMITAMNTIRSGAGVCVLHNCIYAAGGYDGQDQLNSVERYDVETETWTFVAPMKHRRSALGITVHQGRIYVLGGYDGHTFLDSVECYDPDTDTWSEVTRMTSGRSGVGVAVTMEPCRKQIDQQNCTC
compound,measurement,setting,value
"Cc1ccc([C@@H](c2ccn3c(C(F)(F)F)nnc3c2C)C(C)(C)C(=O)O)cc1CN1C[C@H]2CCCCN2c2ncc(C#N)cc2S1(=O)=O (single isomer, unassigned) [Example 422, (*S)-3-(3-(((*R)-3-cyano-5,5-dioxido-7,7a,8,9,10,11-hexahydro-6H-dipyrido[2,1-d:2′,3′-f][1,2,5]thiadiazepin-6-yl)methyl)-4-methylphenyl)-2,2-dimethyl-3-(8-methyl-3-(trifluoromethyl)-[1,2,4]triazolo[4,3-a]pyridin-7-yl)propanoic Acid]",Kd,[1],< 1 nM
same,EC50,[2],1.3 nM
"Cc1ncc([C@H](c2ccc3c(nnn3C3CC3)c2C)C(C)(C)C(=O)O)cc1CN1CC2(CCOCC2)Oc2ncccc2S1(=O)=O (single isomer, unassigned) [Example 44, (*S)-3-(1-Cyclopropyl-4-methyl-1H-benzo[d][1,2,3]triazol-5-yl)-3-(5-((1′,1′-dioxido-2,3,5,6-tetrahydrospiro[pyran-4,4′-pyrido[2,3-b][1,4,5]oxathiazepin]-2′(3′H)-yl)methyl)-6-methylpyridin-3-yl)-2,2-dimethylpropanoic Acid]",Kd,[1],< 1 nM
same,EC50,[2],54.3 nM
"Cc1ccc(C(CC(=O)O)c2ccn3c(C(F)F)nnc3c2C)cc1CN1CC2(CCOCC2)Oc2ncc(F)cc2S1(=O)=O (stereo not drawn) [Example 532, 3-(3-(Difluoromethyl)-8-methyl-[1,2,4]triazolo[4,3-a]pyridin-7-yl)-3-(3-((8′-fluoro-1′,1′-dioxido-2,3,5,6-tetrahydrospiro[pyran-4,4′-pyrido[2,3-b][1,4,5]oxathiazepin]-2′(3′H)-yl)methyl)-4-methylphenyl)propanoic Acid]",Kd,[1],< 1 nM
same,EC50,[2],41.7 nM
"Cc1cnc2c(c1)S(=O)(=O)N(Cc1nc([C@@H](c3ccn4c(C(F)F)nnc4c3C)C(C)(C)C(=O)O)ccc1C)CC1(CNC1)O2 (single isomer, unassigned) [Example 632, (*S)-3-(3-(Difluoromethyl)-8-methyl-[1,2,4]triazolo[4,3-a]pyridin-7-yl)-2,2-dimethyl-3-(5-methyl-6-((8′-methyl-1′,1′-dioxidospiro[azetidine-3,4′-pyrido[2,3-b][1,4,5]oxathiazepin]-2′(3′H)-yl)methyl)pyridin-2-yl)propanoic Acid]",Kd,[1],21200 nM
same,EC50,[2],18100 nM
"Cc1cnc2c(c1)S(=O)(=O)N(Cc1cc([C@H](CC(=O)O)c3ccn4c(C(F)(F)F)nnc4c3C)ccc1C#N)CC1(CC1)O2 (single isomer, unassigned) [Example 105, (*S)-3-(4-Cyano-3-((8′-methyl-1′,1′-dioxidospiro[cyclopropane-1,4′-pyrido[2,3-b][1,4,5]oxathiazepin]-2′(3′H)-yl)methyl)phenyl)-3-(8-methyl-3-(trifluoromethyl)-[1,2,4]trizolo[4,3-a]pyridine-7-yl)propanoic Acid]",Kd,[1],16 nM
same,EC50,[2],14400 nM
"Cc1ccc([C@H](c2ccn3c(C(F)(F)F)nnc3c2C)C(C)(C)C(=O)O)cc1CN1CC2(CNC2)Oc2ncccc2S1(=O)=O (single isomer, unassigned) [Example 339, (*R)-3-(3-((1′,1′-Dioxidospiro[azetidine-3,4′-pyrido[2,3-b][1,4,5]oxathiazepin]-2′(3′H)-yl)methyl)-4-methylphenyl)-2,2-dimethyl-3-(8-methyl-3-(trifluoromethyl)-[1,2,4]triazolo[4,3-a]pyridin-7-yl)propanoic Acid]",Kd,[1],80200 nM
same,EC50,[2],6320 nM
"Cc1ccc([C@@H](CC(=O)O)c2ccn3c(C(F)(F)F)nnc3c2C)cc1CN1CC(C)(C)Oc2ncccc2S1(=O)=O (single isomer, unassigned) [Example 270, (*R)-3-(3-((4,4-Dimethyl-1,1-dioxido-3,4-dihydro-2H-pyrido[2,3-b][1,4,5]oxathiazepin-2-yl)methyl)-4-methylphenyl)-3-(8-methyl-3-(trifluoromethyl)-[1,2,4]triazolo[4,3-a]pyridin-7-yl)propanoic Acid]",Kd,[1],1.28 nM
same,EC50,[2],2420 nM
"Cc1ccc([C@H](CC(=O)O)c2ccn3c(C(F)(F)F)nnc3c2C)cc1CN1CC2(CC2)Oc2nc(NCCCO)ccc2S1(=O)=O (single isomer, unassigned) [Example 102]",Kd,[1],< 1 nM
same,EC50,[2],696 nM
"Cc1ccc([C@H](CC(=O)O)c2ccn3c(C(F)(F)F)nnc3c2C)cc1CN1C[C@H]2CCCN2c2ncc(C#N)cc2S1(=O)=O (single isomer, unassigned) [Example 207, (*S)-3-(3-(((R)-3-Cyano-5,5-dioxido-7a,8,9,10-tetrahydropyrido[2,3-f]pyrrolo[2,1-d][1,2,5]thiadiazepin-6(7H)-yl)methyl)-4-methylphenyl)-3-(8-methyl-3-(trifluoromethyl)-[1,2,4]triazolo[4,3-a]pyridin-7-yl)propanoic Acid]",Kd,[1],< 1 nM
same,EC50,[2],11 nM
"Cc1ccc(C(c2ccc3c(nnn3CC3CC3)c2C)C(C)(C)C(=O)O)nc1CN1CC2(CCOCC2)Oc2nc(OCCN3CCOCC3)ccc2S1(=O)=O (stereo not drawn) [Example 327, 3-(1-(Cyclopropylmethyl)-4-methyl-1H-benzo[d][1,2,3]triazol-5-yl)-2,2-dimethyl-3-(5-methyl-6-((7′-(2-morpholinoethoxy)-1′,1′-dioxido-2,3,5,6-tetrahydrospiro[pyran-4,4′-pyrido[2,3-b][1,4,5]oxathiazepin]-2′(3′H)-yl)methyl)pyridin-2-yl)propanoic Acid]",Kd,[1],< 1 nM
same,EC50,[2],6.9 nM
"Cc1ccc([C@H](CC(=O)O)c2ccn3c(C(F)(F)F)nnc3c2C)cc1CN1CC2(CC2)Oc2ncc(C(N)=O)cc2S1(=O)=O (single isomer, unassigned) [Example 201, (*S)-3-(3-((8′-Carbamoyl-1′,1′-dioxidospiro[cyclopropane-1,4′-pyrido[2,3-b][1,4,5]oxathiazepin]-2′(3′H)-yl)methyl)-4-methylphenyl)-3-(8-methyl-3-(trifluoromethyl)-[1,2,4]triazolo[4,3-a]pyridin-7-yl)propanoic Acid]",Kd,[1],300 nM
same,EC50,[2],> 20000 nM
"Cc1ccc(C(CC(=O)O)c2cc(OC(F)F)c3c(c2)nnn3C)cc1CN1C[C@H]2CCCN2c2ncccc2S1(=O)=O (mixture of isomers) [Example 246, 3-(7-(Difluoromethoxy)-1-methyl-1H-benzo[d][1,2,3]triazol-5-yl)-3-(3-(((R)-5,5-dioxido-7a,8,9,10-tetrahydropyrido[2,3-f]pyrrolo[2,1-d][1,2,5]thiadiazepin-6(7H)-yl)methyl)-4-methylphenyl)propanoic Acid and its Trifluoroacetic Acid Salt]",Kd,[1],< 1 nM
same,EC50,[2],87.3 nM
"Cc1cnc2c(c1)S(=O)(=O)N(Cc1cc([C@H](c3ccc4c(nnn4C4CC4)c3C)C(C)(C)C(=O)O)ccc1C)CC1(CCNCC1)O2 (single isomer, unassigned) [Example 649, (*R)-3-(1-Cyclopropyl-4-methyl-1H-benzo[d][1,2,3]triazol-5-yl)-2,2-dimethyl-3-(4-methyl-3-((8′-methyl-1′,1′-dioxidospiro[piperidine-4,4′-pyrido[2,3-b][1,4,5]oxathiazepin]-2′(3′)-yl)methyl)phenyl)propanoic Acid]",Kd,[1],1450 nM
same,EC50,[2],4750 nM
"Cc1ncc([C@@H](c2ccn3c(C(F)(F)F)nnc3c2C)C(C)(C)C(=O)O)cc1CN1CC2(CCOCC2)Oc2ncccc2S1(=O)=O (single isomer, unassigned) [Example 571, (*R)-3-(5-((1′,1′-dioxido-2,3,5,6-tetrahydrospiro[pyran-4,4′-pyrido[2,3-b][1,4,5]oxathiazepin]-2′(3′H)-yl)methyl)-6-methylpyridin-3-yl)-2,2-dimethyl-3-(8-methyl-3-(trifluoromethyl)-[1,2,4]triazolo[4,3-a]pyridin-7-yl)propanoic Acid]",Kd,[1],5850 nM
same,EC50,[2],> 20000 nM
"COc1ccc2c(n1)OC1(CCOCC1)CN(Cc1cc([C@@H](c3ccn4c(C(F)F)nnc4c3C)C(C)(C)C(=O)O)ccc1C)S2(=O)=O (single isomer, unassigned) [Example 582, (*S)-3-(3-(Difluoromethyl)-8-methyl-[1,2,4]triazolo[4,3-a]pyridin-7-yl)-3-(3-((7′-methoxy-1′,1′-dioxido-2,3,5,6-tetrahydrospiro[pyran-4,4′-pyrido[2,3-b][1,4,5]oxathiazepin]-2′(3′H)-yl)methyl)-4-methylphenyl)-2,2-dimethylpropanoic Acid]",Kd,[1],< 1 nM
same,EC50,[2],1.43 nM
"Cc1ccc([C@@H](CC(=O)O)c2ccn3c(C(F)(F)F)nnc3c2C)cc1CN1CC(C)(C)Oc2ccccc2S1(=O)=O (single isomer, unassigned) [Example 286, (*R)-3-(3-((4,4-Dimethyl-1,1-dioxido-3,4-dihydro-2H-benzo[b][1,4,5]oxathiazepin-2-yl)methyl)-4-methylphenyl)-3-(8-methyl-3-(trifluoromethyl)-[1,2,4]triazolo[4,3-a]pyridin-7-yl)propanoic Acid]",Kd,[1],3.39 nM
same,EC50,[2],504 nM
"Cc1ccc([C@@H](CC(=O)O)c2ccn3c(C(F)(F)F)nnc3c2C)cc1CN1C[C@H]2CCN2c2ncccc2S1(=O)=O (single isomer, unassigned) [Example 295, (*R)-3-(3-(((*R)-5,5-Dioxido-7,7a,8,9-tetrahydro-6H-azeto[2,1-d]pyrido[2,3-f][1,2,5]thiadiazepin-6-yl)methyl)-4-methylphenyl)-3-(8-methyl-3-(trifluoromethyl)-[1,2,4]triazolo[4,3-a]pyridin-7-yl)propanoic Acid]",Kd,[1],8.07 nM
same,EC50,[2],2090 nM
"Cc1ccc([C@@H](CC(=O)O)c2cc(OC3CC3)c3c(c2)nnn3C)cc1CN1C[C@H]2CCCN2c2ncccc2S1(=O)=O (single isomer, unassigned) [Example 6, (*R)-3-(7-Cyclopropoxy-1-methyl-1H-benzo[d][1,2,3]triazol-5-yl)-3-(3-(((R)-5,5-dioxido-7a,8,9,10-tetrahydropyrido[2,3-f]pyrrolo[2,1-d][1,2,5]thiadiazepin-6(7H)-yl)methyl)-4-methylphenyl)propanoic Acid]",Kd,[1],0.089 nM
same,EC50,[2],42 nM
